From US7531651B2, “Benzenesulphonate salt of a morpholine urea derivative for use as a CCR-3 antagonist in the treatment of inflammatory conditions” (Glaxo Group Limited, priority 2002, dated 2009)

Legend:
CCR-3 = molecular target: T1, CCR-3 (Homo sapiens, UniProt P51677); assay: CCR-3 competition binding SPA ([125I]eotaxin); settings: membranes from K562 cells stably expressing CCR-3; 20 pM [125I]eotaxin; read-out: pIC50 (inhibition of [125I]eotaxin binding) (converted)
T1 construct: expressed in transfected cells
T1 sequence (P51677 1-355): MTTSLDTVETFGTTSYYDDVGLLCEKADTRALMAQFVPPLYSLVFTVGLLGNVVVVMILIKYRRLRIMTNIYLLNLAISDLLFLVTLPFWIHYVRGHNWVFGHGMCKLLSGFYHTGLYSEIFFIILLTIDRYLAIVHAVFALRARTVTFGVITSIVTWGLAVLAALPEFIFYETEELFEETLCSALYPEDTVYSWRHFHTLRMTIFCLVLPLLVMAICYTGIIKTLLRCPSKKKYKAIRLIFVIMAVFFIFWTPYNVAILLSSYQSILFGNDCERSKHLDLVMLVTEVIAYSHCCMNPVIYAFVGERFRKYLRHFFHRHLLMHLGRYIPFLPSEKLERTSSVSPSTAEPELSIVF
Protocol: A CCR-3 competition binding SPA (scintillation proximity assay) was used to assess the affinity of novel compounds for CCR-3. Membranes prepared from K562 cells stably expressing CCR-3 (2.5 μg/well) were mixed with 0.25 mg/well wheat-germ agglutinin SPA beads (Amersham) and incubated in binding buffer (HEPES 50 mM, CaCl2 1 mM, MgCl2 5 mM, 0.5% BSA) at 4° C. for 1.5 hr. Following incubation, 20 pM of [^125I] eotaxin (Amersham) and increasing concentrations of compound (1 pM to 30 μM) were added and incubated in a 96 well plate for 2 hr at 22° C. then counted on a Microbeta plate counter. The total assay volume was 100 μl. Competition binding data were analysed by fitting the data with a four parameter logistic equation. Data are presented as the mean pIC50 values (negative logarithm of the concentration of compound which inhibits [^125I]eotaxin binding by 50%) from at least two experiments.

eosinophils = assay: Eosinophil chemotaxis assay (eotaxin-induced); format: cell-based; settings: human peripheral blood eosinophils; agonist eotaxin at EC80
Protocol: (b) Eosinophil Chemotaxis Assay.
Compounds were evaluated for their inhibitory effect on eosinophil chemotaxis. Eosinophils were purified from human peripheral blood by standard CD16 cell depletion using a Miltenyi cell separation column and a magnetic Super Macs magnet as previously described (Motegi & Kita, 1998; J. Immunology. 161:4340-6). Cells were re-suspended in RPMI 1640/10% FCS solution and incubated with calcein-AM (Molecular Probes) at 37° C. for 30 mins. Following incubation, the eosinophils were centrifuged at 400 g for 5 min and re-suspended in RPMI/FCS at 2.2 million/ml. Cells were then incubated in the presence of increasing concentration of compounds (1 μM to 30 μM) at 37° C. for 30 mins. For control responses cells were incubated with RPMI/FCS only. The agonist eotaxin (either a concentration response curve or for the functional inhibition curves an EC80 concentration) was added to the lower chamber of a 96 well chemotaxis plate (5 μm filter: Receptor Technologies). […] Cells remaining on top of the chemotaxis filter were removed and the number of eosinophils which had migrated were quantified by reading the plate on a fluorescent plate reader. Inhibition curves for the effect of compounds on eosinophil chemotaxis were analysed by fitting the data with a four parameter logistic equation. […]

Hygroscopicity = format: physicochemical
[1] = Solubility in water versus free base
[2] = Stability in aqueous solution (impurity profiles); settings: presence and absence of light, 8 days, pH range 2-10
Excerpt: Thus a convenient method for determining the stability of the compounds of the invention in aqueous solution involves determining the impurity profiles of an aqueous solution of the test compound at known conditions of temperature and over known periods of time.

[3] = Solid form storage stability tests (temperature/humidity/light)
Excerpt: The stability of the compound of the invention may be determined using conventional quantitative analytical methods: For example the stability of the compound in the solid form may be determined by using accelerated stability tests such as differential scanning calorimetry (DSC), thermogravimetric analysis (TGA) and isothermal testing at elevated temperatures including conventional storage tests wherein the test compound is stored under controlled conditions of temperature and humidity over known periods of time. Quantitative analysis of the test compounds, against appropriate reference standards before, during and after the storage period allows the stability of the test compound to be determined.

With `NC(=O)c1ccc(CNC(=O)NC[C@H]2CN(Cc3ccc(Cl)c(Cl)c3)CCO2)cc1.O.O.O=S(=O)(O)c1ccccc1` [compound of the invention, 4-({[({[(2S)-4-(3,4-dichlorobenzyl)morpholin-2-yl]methyl}amino)carbonyl]amino}methyl)benzamide benzenesulfonate dihydrate] the IC50 (CCR-3) was less than 10 µM, the “fpKi (functional pKi)” value (eosinophils) was “greater than 5” and the hygroscopicity (Hygroscopicity) was “non-hygroscopic”. The “solubility in water compared with the free base” value [1] was “more soluble in water than the corresponding free base”, the aqueous stability [2] was “good aqueous stability” and the “degradation on storage (solid form)” value ([3]; 50° C./ambient conditions, 25 days) was “no significant degradation”. For the same compound, the “degradation on storage (solid form)” value ([3]; light cabinet, ambient conditions, 14 days) was “no significant degradation”.
